# Measurements: ChEMBL document CHEMBL4177606, “Synthesis of novel 1,2,5-oxadiazoles and evaluation of action against Acinetobacter baumannii” (2017)
# System: Acinetobacter baumannii
# Assay: Antibacterial activity against Acinetobacter baumannii ATCC 17978 after 24 to 48 hrs in presence of iron chelator 2,2'-dipyridyl by CLSI method
# Assay type: functional
row,SMILES,MIC [µM]
1,Cc1nonc1NC(=O)CSc1nc2ccccc2[nH]1,2000
2,O=C(CCc1ccccc1)Nc1nonc1-c1ccccc1,> 4000
3,Cc1nonc1NC(=O)CSc1ncccn1,4000
4,CCCc1nonc1NC(=O)CCc1ccccc1,1000
5,Cc1nonc1NC(=O)/C=C/c1ccccc1O,500
6,Cc1ccnc(SCC(=O)Nc2nonc2C)n1,4000
7,Cc1nonc1NC(=O)CSc1nc2ccccc2s1,> 4000
8,O=C(COc1ccccc1)Nc1nonc1-c1ccccc1,> 4000
9,Cc1nonc1NC(=O)CN(CC(=O)Nc1nonc1C)c1ccccc1,> 4000
10,O=C(/C=C/c1ccccc1)Nc1nonc1-c1ccccc1,> 4000
11,CC(=O)Oc1ccccc1/C=C/C(=O)Nc1nonc1C,2000
12,Cc1nonc1NC(=O)/C=C/c1ccc(O)c(O)c1,> 4000
13,CCCc1nonc1NC(=O)/C=C/c1ccccc1,> 4000
14,O=C(CSc1ccccc1)Nc1nonc1-c1ccccc1,> 4000
15,Cc1nonc1NC(=O)c1ccc2ccccc2c1,4000
16,CC(=O)Oc1ccc(/C=C/C(=O)Nc2nonc2C)cc1OC(C)=O,4000
17,O=C(COc1ccccc1Cl)Nc1nonc1-c1ccccc1,> 4000
18,Cc1nonc1NC(=O)/C=C/c1ccccc1,1000
19,Cc1nonc1NC(=O)CSC1=NCCS1,2000
20,Cc1nonc1NC(=O)c1cccc2ccccc12,1000

# The next lines start with the values.
row,MIC [µM],SMILES
1,2000,Cc1nonc1NC(=O)CSc1ccccn1
2,> 4000,Cc1nonc1NC(=O)CSc1ccc2ccccc2c1
3,2000,Cc1nonc1NC(=O)COc1ccccc1
4,1000,Cc1nonc1NC(=O)CCc1ccccc1
5,1000,Cc1nonc1NC(=O)COc1ccc(Cl)cc1
6,> 4000,Cc1nonc1NC(=O)COc1cccc2ccccc12
7,1000,Cc1nonc1NC(=O)CSc1ccccc1
8,> 4000,Cc1nonc1NC(=O)COc1cccc(Cl)c1Cl
9,1000,Cc1nonc1NC(=O)COc1ccc(Cl)c(Cl)c1
10,> 4000,Cc1nonc1NC(=O)COc1ccccc1Cl
11,2000,COc1ccc(CCC(=O)Nc2nonc2C)cc1
